Test results from paper PMC4109680, “Identification and Preclinical Pharmacology of the γ-Secretase Modulator BMS-869780” (International Journal of Alzheimer's Disease, 2014).

What was measured:
[1] = tested on: rat brain APP-CTFβ and APP-CTFα; test: Immunoprecipitation and western blot of APP-CTFβ and APP-CTFα from rat brain; assay type: in vivo; conditions: oral doses 1.9-235 mg/kg, 24 hours
Procedure: Rats were given oral doses of BMS-869780, and levels of brain Aβ, βCTF, and αCTF were determined 24 hours later. For comparison, BMS-698861 was dosed in a separate experiment and samples were taken 5 hours later. (a) Brain levels of Aβ1-42 (red), Aβ1-40 (green), Aβ1-38 (blue), and Aβ1-37 (purple) are shown as bars stacked upon one another. The total height of each bar therefore represents the sum of the four peptides. (b) Aβ1-42 (red—left Y axis) and Aβ1-x (grey—right Y axis). The same results for Aβ1-42 are plotted in both (a) and (b). (c) Rat brain βCTF was detected by western blotting of immunoprecipitates from samples of the same rat brains used for Aβ determinations. V, vehicle groups; results from rats dosed with 1.9, 22, 100, and 235 mg/kg of BMS-869780 and 10 mg/kg BMS-698861 (GSI) are indicated. (d) Western blots of immunoprecipitated αCTF from the same rat brain samples. (e) and (f) quantification of western blots shown in (c) and (d), respectively, expressed relative to percent of average level of CTF in vehicle-treated rats. Actual doses of BMS-869780 were determined by analysis of concentrations in left-over dosing solutions. […]

[2] = Plasma protein bound fraction, mouse; assay type: in vitro ADME
rat brain Aβ = test: Rat brain Aβ peptides after oral dose (4-plex immunoassay and Aβ1-x); assay type: in vivo; conditions: 24 hours
Procedure: IC50 determinations for Aβ1-42 and Aβ1-40 in H4-APPsw cultures in 384-well format were determined using homogeneous time-resolved fluorescence immunoassays as previously described. The principle of these assays is illustrated in Figures 1(c) and 1(d). In other experiments using H4-APPsw cultures, Aβ was quantified by ELISA; for Aβ1-42 the combination of monoclonal antibodies was 26D6 and 565-HRP; for Aβ1-40 it was TSD and 26D6-HRP, and for Aβ1-x it was 4G8 and 26D6-HRP. In some experiments a novel 4-plex Aβ electrochemiluminescence immunoassay was used (Mesoscale Discovery catalog number N45ZA-1). Briefly, the 4-plex was carried out in 96-well format, with 4 separate spots of capture antibodies in each well. The 96-well plates were prepared by the manufacturer, with spots of monoclonal antibodies for Aβ1-42, Aβ1-40, and Aβ1-38, and an additional fourth spot of streptavidin in each well. Plates were initially incubated with blocking buffer (5% BSA in phosphate buffered saline, 200 μL per well) for 2 hours at ambient temperature and then with D2A6H-biotin conjugate (50 ng/mL in 1% BSA, phosphate buffered saline, 25 μL per well) for 1 hour. Plates were then rinsed with phosphate buffered saline before addition of experimental samples for determination of Aβ1-42, Aβ1-40, Aβ1-38, and Aβ1-37 levels, following the manufacturer's instructions as for the Aβ 3-plex kit (catalog number K15148E-1). Rat brain extracts for use in the 4-plex assay were made in 0.2% diethylamine, as previously described. For detection of rat Aβ peptides in the 4-plex (Figure 5), 252Q6-sulfo-tag conjugate was used, and for detection of human Aβ peptides from cell cultures 6E10-sulfo-tag conjugate was used. For Aβ in transiently transfected PS1/PS2 dKO fibroblasts, Aβ1-42 was quantified using an ELISA kit (WACO), and Aβ1-40 was quantified by ELISA as described above for H4-APPsw cultures. For triple transgenic mice (3xTg; [63]), human transgenic Aβ1-42 was assayed in brain homogenates using an ELISA kit (WACO). For the rat and mouse experiments illustrated in Figures 7 and 8, brain samples were prepared by solid phase extraction, and endogenous rat brain Aβ1-42 and Aβ1-40 were quantified by ELISA as previously described for wild type mice. For brain extracts made using solid phase extraction, calibration of Aβ was relative, based on the approximately linear response of the assay in the range tested. For brain extracts made in 0.2% diethylamine, Aβ1-42, Aβ1-40, Aβ1-38, and Aβ1-37 concentrations in brain and cell culture samples were determined by fitting the results of immunoassays against calibration curves derived from a range of dilutions of the corresponding synthetic peptides on each assay plate using a quadratic curve fit (Graphpad Prizm 5.0). Aβ1-x was calibrated in the same way against synthetic Aβ1-40 peptide. Results were expressed in units of pM, corrected for sample dilution.
Rats were given oral doses of BMS-869780, and levels of brain Aβ, βCTF, and αCTF were determined 24 hours later. For comparison, BMS-698861 was dosed in a separate experiment and samples were taken 5 hours later. […] (c) Rat brain βCTF was detected by western blotting of immunoprecipitates from samples of the same rat brains used for Aβ determinations. […] (e) and (f) quantification of western blots shown in (c) and (d), respectively, expressed relative to percent of average level of CTF in vehicle-treated rats. […]

COc1cc(Nc2nc3n(n2)CCCC[C@H]3c2ccc(F)cc2)ccc1-n1cnc(Cl)c1 [BMS-869780]
rat brain APP-CTFβ and APP-CTFα levels [1]: Neither APP-CTFβ nor APP-CTFα levels were affected
protein bound fraction [2]: 99.6%
rat brain Aβ1-37 and Aβ1-38 (rat brain Aβ; oral doses 1.9-235 mg/kg): increased
rat brain Aβ1-40 and Aβ1-42 (rat brain Aβ; oral doses 1.9-235 mg/kg): decreased
rat brain Aβ1-x (rat brain Aβ; oral doses): no significant decrease
sum total of brain Aβ1-40, Aβ1-42, Aβ1-38 and Aβ1-37 (rat brain Aβ; oral doses): no significant change in overall Aβ levels
